From US11759471B2, “Modified release pharmaceutical composition and method for the treatment of mental disorders” (MEDICAL AND PHARMACEUTICAL INDUSTRY TECHNOLOGY AND …, priority 2019, dated 2023)

Tests used:
[1] = Dissolution of methacrylic acid coated samples in pH1.2 solvent; format: physicochemical; conditions: methacrylic acid coated samples with different encapsulation efficiency
Description: Further use carried out with different encapsulation efficiency of experiments, and the samples with different encapsulation efficiency were test pH1.2 solvent dissolve. At the same time, it can be known that the results of the dissolution rate of paliperidone within 2 hours is not more than 10%. The present invention can be achieved effect of delayed release of paliperidone.

[2] = In vitro dissolution test, USP Apparatus 2 (paddle); format: physicochemical; conditions: FIG. 1, 3 mg paliperidone in raw form
Description: In vitro dissolution test was conducted in a USP Apparatus 2 (paddle) at 37±0.5° C., 50 rpm, in a solution having 750 mL of 0.1 N HCl and 1000 mL of pH 6.8 buffer
FIG. 1 discloses the dissolution release amount for 25 mg quetiapine in tablet of reference listed drug, 3 mg paliperidone in raw form.

[3] = as measured by blood concentration; cited from earlier work

Structure (SMILES): Cc1nc2n(c(=O)c1CCN1CCC(c3noc4cc(F)ccc34)CC1)CCCC2O (stereo not shown) [paliperidone]
- dissolution rate of paliperidone within 2 hours [1]: not more than 10%
- dissolution amount of paliperidone after pH change ([2]; after 120 minutes, pH increased from 1.2 to 6.8, slightly decreased): above 100%
- dissolution amount of paliperidone ([2]; less than 10 minutes, then maintained, pH 1.2): above 100%
- half-life in patients' blood [3]: 20 to 28 h
